Molecular target: Casein kinase I isoform delta (Homo sapiens) (UniProt P48730)
Experiment: CSNK1D kinase inhibitors, dose response, biochemical, Z'-LYTE, FRET, direct format (AID 1671244)
Conditions: Z'-LYTE FRET kinase activity, recombinant CK1 delta

Chain of Casein kinase I isoform delta (Homo sapiens) (P48730 whole entry, looked up, canonical isoform): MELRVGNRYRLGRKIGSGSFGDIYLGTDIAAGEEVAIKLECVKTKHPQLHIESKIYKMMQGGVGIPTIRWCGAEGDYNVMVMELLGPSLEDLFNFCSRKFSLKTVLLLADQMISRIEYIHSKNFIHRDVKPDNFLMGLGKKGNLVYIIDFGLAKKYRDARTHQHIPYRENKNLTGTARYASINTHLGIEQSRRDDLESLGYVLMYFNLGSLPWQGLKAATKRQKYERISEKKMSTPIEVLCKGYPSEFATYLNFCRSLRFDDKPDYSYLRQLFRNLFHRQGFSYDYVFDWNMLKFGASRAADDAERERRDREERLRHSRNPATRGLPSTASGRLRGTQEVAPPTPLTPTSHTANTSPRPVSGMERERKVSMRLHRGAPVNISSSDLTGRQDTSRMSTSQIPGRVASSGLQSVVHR

IC50: 3.68 µM
SMILES: Brc1c(Br)c(Br)c2n[nH]nc2c1Br

From PubChem BioAssay AID1671244
